# Measured values: US20220372585A1, “Sensors for Aromatic Compounds and Methods of Making and Using Same” (Washington University, priority 2021, published 2022)
# Where “and” joins values, the source holds several entries; their conditions need not be identical. Equal entries are not always repeated. Entries after “also recorded” stand apart in the source; their conditions may differ.
# What was measured:
# Assay type in all cases: cell-based, E. coli
# [1] = biological target: T1, E274Q TyrR (Escherichia coli, UniProt P07604, E274Q); assay: cell-based
# T1 construct: expressed in transfected cells; host or cells: E. coli Nissle 1917 (EcN), plasmid pAGR102
# Procedure: (§1) Everything but (Eb) medium was prepared by supplementing M9 minimal medium with 1 mM MgSO4, […]), 0.4% w/v glucose, and all non-aromatic amino acids (0.8 mM alanine, 5 mM arginine, 0.4 mM asparagine, 0.4 mM aspartate, 0.1 mM cysteine, 0.6 mM glutamate, 0.6 mM glutamine, 0.8 mM glycine, 0.2 mM histidine, 0.4 mM isoleucine, 0.8 mM leucine, 0.4 mM lysine, 0.2 mM methionine, 0.4 mM proline, 10 mM serine, 0.4 mM threonine, and 0.6 mM valine). […] Experimental cultures were prepared by diluting overnight cultures 200× into 0.6 mL fresh Eb medium supplemented with the respective ligands (Phe and Tyr) in 2 mL 96-deep well plates (Eppendorf, Hamburg, Germany). Cultures were grown for 8 h at 37° C. and 250 rpm before sampled for fluorimetry or flow cytometry analysis. All medium was supplemented with the relevant antibiotics for plasmid maintenance (34 mg/ml chloramphenicol and 100 mg/ml spectinomycin).
# (§2) […] culture samples were collected and transferred to 96-well assay microplates (clear, flat bottom black, Greiner Bio-One). The fluorescence and culture absorbance (Abs) were measured using a Tecan microplate reader (Infinite M200 Pro) as previously described. The fluorescence of GFP was measured with an excitation at 483 nm and emission at 530 nm. The Abs of the samples was measured at 600 nm. The measured fluorescence was normalized by dividing by the Abs and subtracting the same ratio obtained from non-fluorescent wild-type cells (Equation 1).
# (§3) Flow cytometry was performed as previously described. […] Cytometry data was gated by forward and side scatter.
# [2] = biological target: T2, E274Q+D103S TyrR (Escherichia coli, UniProt P07604, D103S/E274Q); assay: cell-based
# T2 construct: expressed in transfected cells; host or cells: E. coli Nissle 1917 (EcN), plasmid pAGR159
# Procedure: as §1, §2, §3
# [3] = biological target: T3, E274Q+T14V TyrR (Escherichia coli, UniProt P07604, E274Q/T14V); assay: cell-based
# T3 construct: expressed in transfected cells; host or cells: E. coli Nissle 1917 (EcN), plasmid pAGR157
# Procedure: as §1, §2, §3
# [4] = biological target: T4, R10F TyrR (Escherichia coli, UniProt P07604, R10F); assay: cell-based; conditions: ligand alone, listed as Phe
# T4 construct: expressed in transfected cells; host or cells: E. coli Nissle 1917 (EcN), plasmid pAGR473
# Procedure: as §1, §2, §3
# [5] = biological target: T5, wild-type TyrR (Escherichia coli, UniProt P07604); assay: cell-based
# T5 construct: tyrR (WT); expressed in transfected cells; host or cells: E. coli Nissle 1917 (EcN)
# Procedure: as §1, §2, §3
# [6] = biological target: T6, E274Q+C7V TyrR (Escherichia coli, UniProt P07604, C7V/E274Q); assay: PtyrP-GFP reporter, E274Q+C7V TyrR (pAGR160) in EcN
# T6 construct: expressed in transfected cells; host or cells: E. coli Nissle 1917 (EcN), plasmid pAGR160
# Procedure: as §1, §2, §3
# [7] = biological target: T7, E274Q+L11G TyrR (Escherichia coli, UniProt P07604, E274Q/L11G); assay: PtyrP-GFP reporter, E274Q+L11G TyrR (pAGR155) in EcN
# T7 construct: expressed in transfected cells; host or cells: E. coli Nissle 1917 (EcN), plasmid pAGR155
# Procedure: as §1, §2, §3
# [8] = biological target: T8, E274Q+T14G TyrR (Escherichia coli, UniProt P07604, E274Q/T14G); assay: PtyrP-GFP reporter, E274Q+T14G TyrR (pAGR156) in EcN
# T8 construct: expressed in transfected cells; host or cells: E. coli Nissle 1917 (EcN), plasmid pAGR156
# Procedure: as §1, §2, §3
# [9] = biological target: T9, E274Q+D103H TyrR (Escherichia coli, UniProt P07604, D103H/E274Q); assay: PtyrP-GFP reporter, E274Q+D103H TyrR (pAGR158) in EcN
# T9 construct: expressed in transfected cells; host or cells: E. coli Nissle 1917 (EcN), plasmid pAGR158
# Procedure: as §1, §2, §3
# [10] = biological target: T10, E274Q TyrR with T14V and D103S combined (Escherichia coli, UniProt P07604, D103S/E274Q/T14V); assay: PtyrP-GFP reporter, E274Q TyrR with both T14V and D103S mutations combined; conditions: both mutations (T14V, D103S) combined in E274Q TyrR
# T10 construct: tyrR (WT); expressed in transfected cells; host or cells: E. coli Nissle 1917 (EcN)
# Procedure: as §1, with “All medium was supplemented with the relevant antibiotics for plasmid maintenance (34 mg/ml chloramphenicol and 100 mg/ml spectinomycin).” left out
# […] culture samples were collected and transferred to 96-well assay microplates (clear, flat bottom black, Greiner Bio-One). The fluorescence and culture absorbance (Abs) were measured using a Tecan microplate reader (Infinite M200 Pro) as previously described. The fluorescence of GFP was measured with an excitation at 483 nm and emission at 530 nm. The Abs of the samples was measured at 600 nm. The measured fluorescence was normalized by dividing by the Abs and subtracting the same ratio obtained from non-fluorescent wild-type cells (Equation 1). […]
# [11] = wild-type TyrR, pAGR010, FIG. 1C, 8 h
# [12] = E274Q+C7V TyrR, pAGR160, FIG. 10A, 8 h
# [13] = E274Q+L11G TyrR, pAGR155, FIG. 10B, 8 h
# [14] = E274Q+T14G TyrR, pAGR156, FIG. 10C, 8 h
# [15] = E274Q+D103H TyrR, pAGR158, FIG. 10D, 8 h
# T7 sequence (P07604 whole entry L11G/E274Q): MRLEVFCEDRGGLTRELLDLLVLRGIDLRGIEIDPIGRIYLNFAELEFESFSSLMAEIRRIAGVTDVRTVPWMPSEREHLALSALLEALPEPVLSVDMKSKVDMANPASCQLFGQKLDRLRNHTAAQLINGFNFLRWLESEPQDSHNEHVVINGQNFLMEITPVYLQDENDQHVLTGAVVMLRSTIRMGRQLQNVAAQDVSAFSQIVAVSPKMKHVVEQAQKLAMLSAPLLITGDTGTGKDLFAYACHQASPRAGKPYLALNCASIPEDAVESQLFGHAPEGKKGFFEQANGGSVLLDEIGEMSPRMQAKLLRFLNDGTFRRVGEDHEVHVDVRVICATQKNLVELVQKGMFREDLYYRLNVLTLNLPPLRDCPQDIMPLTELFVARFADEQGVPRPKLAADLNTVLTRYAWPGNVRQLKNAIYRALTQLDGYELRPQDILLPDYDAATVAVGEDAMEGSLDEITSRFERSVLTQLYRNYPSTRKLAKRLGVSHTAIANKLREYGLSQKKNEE
# T6 sequence (P07604 whole entry C7V/E274Q): as the sequence (P07604 whole entry L11G/E274Q) above, with C7V, G11L counted along it
# T8 sequence (P07604 whole entry T14G/E274Q): as the sequence (P07604 whole entry L11G/E274Q) above, with G11L, T14G counted along it
# T3 sequence (P07604 whole entry T14V/E274Q): as the sequence (P07604 whole entry L11G/E274Q) above, with G11L, T14V counted along it
# T1 sequence (P07604 whole entry E274Q): as the sequence (P07604 whole entry L11G/E274Q) above, with G11L counted along it
# T2 sequence (P07604 whole entry D103S/E274Q): as the sequence (P07604 whole entry L11G/E274Q) above, with G11L, D103S counted along it
# T9 sequence (P07604 whole entry D103H/E274Q): as the sequence (P07604 whole entry L11G/E274Q) above, with G11L, D103H counted along it
# T5 sequence (P07604 whole entry): as the sequence (P07604 whole entry L11G/E274Q) above, with G11L, Q274E counted along it
# T4 sequence (P07604 whole entry R10F): as the sequence (P07604 whole entry L11G/E274Q) above, with R10F, G11L, Q274E counted along it
# T10 sequence (P07604 whole entry T14V/D103S/E274Q): as the sequence (P07604 whole entry L11G/E274Q) above, with G11L, T14V, D103S counted along it
smiles,measurement,setting,value
"N[C@@H](Cc1ccccc1)C(=O)O [Phenylalanine, phenylalanine]",fold induction of PtyrP,[1],16 fold
same,EC50,"[1]; KA (half maximal constant), pAGR102, FIG. 2C, 2D, 8 h",40 µM and 42 µM
same,Fmax,"[1]; pAGR102, FIG. 2C, 2D, 8 h",12800
same,Fmin,"[1]; pAGR102, FIG. 2C, 2D, 8 h",982
same,n (Hill coefficient),"[1]; pAGR102, FIG. 2C, 2D, 8 h",2
same,EC50,"[2]; KA (half maximal constant), pAGR159, FIG. 2C, 2F, 8 h",130 µM and 128 µM
same,KA relative to the E274Q mutant,[2]; higher than E274Q,3 fold
same,Fmax,"[2]; pAGR159, FIG. 2C, 2F, 8 h",10700
same,Fmin,"[2]; pAGR159, FIG. 2C, 2F, 8 h",1310
same,n (Hill coefficient),"[2]; pAGR159, FIG. 2C, 2F, 8 h",0.7
same,EC50,"[3]; KA (half maximal constant), pAGR157, FIG. 2C, 2E, 8 h",80 µM and 83 µM
same,KA relative to the E274Q mutant,[3]; higher than E274Q,2 fold
same,Fmax,"[3]; pAGR157, FIG. 2C, 2E, 8 h",7560
same,Fmin,"[3]; pAGR157, FIG. 2C, 2E, 8 h",814
same,n (Hill coefficient),"[3]; pAGR157, FIG. 2C, 2E, 8 h",1.4
same,response of PtyrP,[4],lack of response; also recorded: no significant response
same,fold induction of PtyrP,[5]; overexpression of wild-type TyrR,4 fold
same,Fmax,[5]; [11],10500
same,Fmin,[5]; [11],2900
same,n (Hill coefficient),[5]; [11],5.5
same,EC50,"[5]; wild-type TyrR, pAGR010, FIG. 1C, 8 h, read-out: KA (half maximal constant)",73 µM
same,EC50,[6],46 µM
same,Fmax,[6]; [12],10800
same,Fmin,[6]; [12],1120
same,n (Hill coefficient),[6]; [12],2.5
same,EC50,[7],45 µM
same,Fmax,[7]; [13],12900
same,Fmin,[7]; [13],5570
same,n (Hill coefficient),[7]; [13],2.2
same,EC50,[8],37 µM
same,Fmax,[8]; [14],12400
same,Fmin,[8]; [14],1430
same,n (Hill coefficient),[8]; [14],2.4
same,EC50,[9],110 µM
same,Fmax,[9]; [15],11800
same,Fmin,[9]; [15],2150
same,n (Hill coefficient),[9]; [15],1
same,response of PtyrP,[10],eliminated
